The structures appear in SMILES notation. pIC50: −log10 of the molar value. Where a name gives a salt, the structure may show the parent alone.

One assay has as its target T1, Human PI3Kα (Homo sapiens, UniProt P42336).
T1 construct: purchased Millipore Corporation 14-602
Kind of assay: PI3Kα enzyme inhibitory activity (Kinase-Glo Plus luminescence). Format: biochemical. Particulars: human PI3Kα 12 ng/well, phosphatidylinositol 0.2 μg/well, 37° C. 3 hours. How it is done: 2. PI3Kα Enzyme Inhibitory Activity
Human PI3Kα (12 ng/well, Millipore Corporation, Catalogue No. 14-602), phosphatidylinositol (0.2 μg/well), and the test compound were mixed in a 384-well plate in a reaction buffer (50 mM Hepes, 10 mM NaCl, 10 mM MgCl2, 2 mM EGTA, 2 mM DTT, pH 7.3) (total 10 μl), and incubated at 37° C. for 3 hours. After the reaction, 10 μL of a Kinase-Glo Plus reagent (Promega, Catalogue No. V3772) was added thereto, and a luminescence was measured with a luminometer.
In general terms: Kinase-Glo measures the ATP left after a reaction by luminescence.

A further assay deals with T2, human PI3Kδ enzyme (Homo sapiens, UniProt O00329).
T2 construct: purchased Millipore Corporation 14-604
T2 sequence (O00329 whole entry): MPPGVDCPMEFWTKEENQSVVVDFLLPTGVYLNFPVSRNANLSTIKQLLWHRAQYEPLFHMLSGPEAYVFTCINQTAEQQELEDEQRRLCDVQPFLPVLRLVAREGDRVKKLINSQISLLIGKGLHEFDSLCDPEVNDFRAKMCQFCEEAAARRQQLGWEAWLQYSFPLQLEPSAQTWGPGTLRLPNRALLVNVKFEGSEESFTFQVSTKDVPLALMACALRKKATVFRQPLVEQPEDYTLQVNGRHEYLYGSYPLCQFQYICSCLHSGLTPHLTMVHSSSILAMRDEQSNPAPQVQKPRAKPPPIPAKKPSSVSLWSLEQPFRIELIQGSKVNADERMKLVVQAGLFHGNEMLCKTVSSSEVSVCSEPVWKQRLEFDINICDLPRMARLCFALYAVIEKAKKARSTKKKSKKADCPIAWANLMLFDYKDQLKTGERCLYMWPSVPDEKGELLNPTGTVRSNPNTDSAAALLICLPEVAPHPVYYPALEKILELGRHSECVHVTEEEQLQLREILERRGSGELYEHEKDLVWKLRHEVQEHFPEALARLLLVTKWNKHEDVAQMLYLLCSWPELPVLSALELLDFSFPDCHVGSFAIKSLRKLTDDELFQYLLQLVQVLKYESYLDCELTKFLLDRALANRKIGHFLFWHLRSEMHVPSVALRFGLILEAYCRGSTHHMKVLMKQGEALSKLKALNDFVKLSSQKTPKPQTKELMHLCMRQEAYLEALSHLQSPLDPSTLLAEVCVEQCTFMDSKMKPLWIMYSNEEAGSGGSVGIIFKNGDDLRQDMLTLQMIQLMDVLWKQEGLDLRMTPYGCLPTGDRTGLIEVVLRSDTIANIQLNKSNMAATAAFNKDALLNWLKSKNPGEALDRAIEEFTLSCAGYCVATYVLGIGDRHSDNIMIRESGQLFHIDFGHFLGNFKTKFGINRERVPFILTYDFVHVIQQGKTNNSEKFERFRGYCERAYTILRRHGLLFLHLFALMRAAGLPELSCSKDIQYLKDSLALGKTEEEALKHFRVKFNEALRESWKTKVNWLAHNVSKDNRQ
T2 sequence (P27986 whole entry partner): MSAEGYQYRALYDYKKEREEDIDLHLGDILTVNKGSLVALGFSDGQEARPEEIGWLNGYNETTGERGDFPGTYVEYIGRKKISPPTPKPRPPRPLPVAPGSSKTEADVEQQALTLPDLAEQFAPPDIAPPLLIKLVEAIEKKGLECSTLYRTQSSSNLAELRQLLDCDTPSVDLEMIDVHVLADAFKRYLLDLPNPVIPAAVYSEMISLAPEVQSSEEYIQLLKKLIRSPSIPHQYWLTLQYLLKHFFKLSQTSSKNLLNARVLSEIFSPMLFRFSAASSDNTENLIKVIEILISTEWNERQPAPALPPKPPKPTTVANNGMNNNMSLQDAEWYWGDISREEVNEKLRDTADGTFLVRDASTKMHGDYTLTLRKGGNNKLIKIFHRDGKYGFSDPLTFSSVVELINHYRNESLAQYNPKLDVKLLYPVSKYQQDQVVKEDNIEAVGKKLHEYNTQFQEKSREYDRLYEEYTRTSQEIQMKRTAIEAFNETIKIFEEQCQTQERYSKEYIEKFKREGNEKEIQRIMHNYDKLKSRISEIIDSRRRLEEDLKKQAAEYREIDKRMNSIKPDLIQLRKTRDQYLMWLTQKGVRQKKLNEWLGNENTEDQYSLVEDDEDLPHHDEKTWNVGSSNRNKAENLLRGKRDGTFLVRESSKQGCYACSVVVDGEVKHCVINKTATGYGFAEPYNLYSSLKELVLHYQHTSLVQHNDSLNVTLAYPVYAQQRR
Kind of assay: PI3Kδ enzyme inhibitory activity (PI3-Kinase HTRF Assay kit). In kind it is biochemical. The conditions noted are these: human PI3Kδ 10 ng/well, ATP 30 μM, PIP2 10 μM, room temperature 30 minutes. On the procedure:
1. PI3Kδ Enzyme Inhibitory Activity
For the experiment, a PI3-Kinase HTRF Assay kit (Millipore Corporation, Catalogue No. 33-016) and a human PI3Kδ enzyme (Millipore Corporation, Catalogue No. 14-604) were used. The measurement method was in accordance with the appended instructions. The overview thereof is as follows.
PI3Kδ (10 ng/well), phosphatidylinositol-4,5-bisphosphate (10 μM), ATP (30 μM), and the test compound were mixed in a 384-well plate (total 20 μL), and incubated at room temperature for 30 minutes. EDTA and biotinylated phosphatidylinositol-3,4,5-triphosphate were added thereto to stop the reaction. Thereafter, a Europium labeled anti-GST antibody, a GST bond GRP1 PH domain, and streptavidin-APC were added thereto, followed by incubation overnight. An HTRF ratio was measured using an HTRF plate reader.
Background: In TR-FRET formats the signal depends on donor and acceptor labels being close together.

Assay [1] deals with Spleen cells prepared from male LEW/CrlCrlj rats (B cell proliferation). Kind of assay: Rat B cell proliferation inhibition test (anti-rat IgM, [3H]thymidine). Format: cell-based. Particulars: anti-rat IgM 3 μg/well, 48 hours culture. How it is done:
4. Rat B Cell Proliferation Inhibition Test
Spleen cells (1.0×10^5 cells/well) prepared from male LEW/CrlCrlj rats (Charles River Laboratories, Japan, Inc.), mouse F(ab′)2 fragment anti-rat IgM (3 μg/well, SouthernBiotech Associates, Inc., Catalogue No. 3082-14) and the test compound dissolved in DMSO (final DMSO concentration 0.1%) were mixed in a 96-well plate using a 10% FCS-containing RPMI-1640 culture medium (total 200 μL). They were cultured in a CO2 incubator for 48 hours and [^3H]thymidine (925 GBq/mmol, Moravek Biochemicals, Inc., Catalogue No. MT6038) was added thereto at 0.037 MBq/well at 4 hours before completion of culture. Cells were harvested in a GF/C glass filter using a cell harvester, and a radioactivity on the filter was measured using a liquid scintillation counter.

Another assay concerns IL-2 production. Nature of the assay: Rat in vivo IL-2 production inhibition test (Concanavalin A induced). The conditions noted are these: 10 mg/kg oral, 2 hours before Concanavalin A 15 mg/kg iv; blood IL-2 at 3 hours, vs vehicle control; male LEW rats. How it is done: 3. Rat In Vivo IL-2 Production Inhibition Test
For the experiment, male LEW/CrlCrlj rats (Charles River Laboratories, Japan, Inc.) (6-week old, body weight 130 to 180 g) were used. The test compound was suspended in a 0.5% methyl cellulose solution and orally administered at 5 mL/kg. IL-2 production was induced by tail vein injection of Concanavalin A (Funakoshi Corporation, Catalogue No. L-1000) at a dose of 15 mg/kg.
The test was carried out according to the protocol shown below. At 2 hours or 16 hours before administration of Concanavalin A, the test compound was orally administered to rats. At 3 hours after administration of Concanavalin A, blood was collected. The IL-2 concentration in blood was quantified using an ELISA kit (R&D Systems, Inc., Catalogue No. DY502E). An inhibition rate was calculated from the amount of IL-2 produced in a group administered with the test compound with respect to the amount of the IL-2 produced in a control group administered with a vehicle.

T1 sequence (P42336 whole entry): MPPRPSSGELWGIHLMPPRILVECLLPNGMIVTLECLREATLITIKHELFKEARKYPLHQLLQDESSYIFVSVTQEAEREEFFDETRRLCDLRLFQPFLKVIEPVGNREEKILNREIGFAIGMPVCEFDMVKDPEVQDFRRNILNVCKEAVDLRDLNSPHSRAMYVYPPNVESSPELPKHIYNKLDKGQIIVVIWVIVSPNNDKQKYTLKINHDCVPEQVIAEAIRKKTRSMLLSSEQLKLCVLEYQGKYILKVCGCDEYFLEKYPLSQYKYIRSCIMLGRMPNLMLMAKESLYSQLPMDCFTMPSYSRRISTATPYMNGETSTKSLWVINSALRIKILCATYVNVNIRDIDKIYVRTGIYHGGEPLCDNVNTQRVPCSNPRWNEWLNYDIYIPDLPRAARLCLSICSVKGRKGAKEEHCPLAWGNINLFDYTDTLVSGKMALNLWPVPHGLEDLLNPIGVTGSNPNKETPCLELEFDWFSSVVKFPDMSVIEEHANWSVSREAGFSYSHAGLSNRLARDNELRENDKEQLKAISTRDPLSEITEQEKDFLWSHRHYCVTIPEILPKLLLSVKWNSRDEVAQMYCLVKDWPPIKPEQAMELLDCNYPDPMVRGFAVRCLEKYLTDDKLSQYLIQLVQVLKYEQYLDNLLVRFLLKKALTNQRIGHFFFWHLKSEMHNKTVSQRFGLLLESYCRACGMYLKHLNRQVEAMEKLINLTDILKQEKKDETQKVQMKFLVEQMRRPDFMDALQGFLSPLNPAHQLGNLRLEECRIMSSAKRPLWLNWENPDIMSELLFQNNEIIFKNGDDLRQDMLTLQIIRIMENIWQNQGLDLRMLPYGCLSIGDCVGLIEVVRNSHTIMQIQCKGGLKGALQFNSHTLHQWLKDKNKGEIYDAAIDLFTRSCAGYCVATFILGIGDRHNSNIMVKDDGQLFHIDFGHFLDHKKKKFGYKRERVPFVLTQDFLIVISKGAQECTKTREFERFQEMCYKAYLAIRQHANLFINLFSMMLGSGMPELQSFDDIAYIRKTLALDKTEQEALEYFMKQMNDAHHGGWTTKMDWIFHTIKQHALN
T1 sequence (P27986 whole entry partner): as the sequence (P27986 whole entry partner) above

`FC(F)c1nc2ccccc2n1-c1cc(N2CCOCC2)nc(NCC2CCN(C3CCOCC3)CC2)n1` [Example 10]: the pIC50 (in general, the negative decadic logarithm of the IC50, by convention in mol/L) on Human PI3Kα was < 5.52; against human PI3Kδ enzyme, 8.24. Further, the half-inhibitory concentration (IC50) (as a rule, the concentration at which inhibition is half-maximal) in assay [1] is 2.9 nM. In addition, the “inhibitory activity (IL-2 production inhibition rate)” value (from here on “inhibitory activity”) in the assay with IL-2 production stood at 77%.

As to `C[C@@H]1COCCN1c1cc(-n2c(C(F)F)nc3ccccc32)nc(NCC2CCN(C3CCOCC3)CC2)n1` [Example 37], the pIC50 was 5.72 at Human PI3Kα and 7.70 on human PI3Kδ enzyme. The compound further registered an IC50 in assay [1] of 1.52 nM. Besides, the “inhibitory activity” value in the assay on IL-2 production amounted to 81%.

On to `FC(F)c1nc2ccccc2n1-c1cc(N2CCOCC2)nc(NCC2CCN([C@H]3CC[C@H](F)CC3)CC2)n1` [Example 43-1, 4-[2-(difluoromethyl)-1H-benzimidazol-1-yl]-N-{[1-(trans-4-fluorocyclohexyl)piperidin-4-yl]methyl}-6-(morpholin-4-yl)pyrimidin-2-amine dihydrochloride], for which the values for the pIC50 on Human PI3Kα and at human PI3Kδ enzyme were 4.89 and 8.10, respectively. In addition, the 50% inhibitory concentration (IC50) in assay [1] stood at 2.1 nM. For the same compound, the “inhibitory activity” value with IL-2 production is reported as 73%.

In the case of `CS(=O)(=O)N1CCC(N2CCC(CNc3nc(N4CCOCC4)cc(-n4c(C(F)F)nc5ccccc54)n3)CC2)CC1` [Example 34], the figures for the pIC50 on Human PI3Kα and on human PI3Kδ enzyme were < 5.52 and 7.85, respectively. For the same compound, the “inhibitory activity” value in the assay on IL-2 production was determined as 72%.

The record behind these values is patent US8912180B2, “Heterocyclic compound” (Astellas Pharma Inc., priority 2010, dated 2014).
